From paper PMC2559975 (Journal of medicinal chemistry, 2008)
Like-named read-outs stand apart in the source and are kept apart here.

Assays:
[1] = tested on: CCRF-CEM human leukemia cell line; assay: In vitro cytotoxic activity; assay type: cell-based; details: for Times less potent than 2 in the CCRF-CEM assay: relative to 2
[2] = tested on: CCRF-CEM/FPGS^-; assay type: cell-based, human; details: relative to CCRF-CEM
[3] = tested on: CCRF-CEM human leukemia cell line; details: read-out: IC50, CCRF-CEM; equi-mixture of C10-diastereomers; cited from earlier work
[4] = target: T1, rhGAR Tfase (Homo sapiens, UniProt P22102); assay: GAR Tfase enzyme inhibition assay; assay type: biochemical
T1 sequence (P22102 808-1010 limits assumed): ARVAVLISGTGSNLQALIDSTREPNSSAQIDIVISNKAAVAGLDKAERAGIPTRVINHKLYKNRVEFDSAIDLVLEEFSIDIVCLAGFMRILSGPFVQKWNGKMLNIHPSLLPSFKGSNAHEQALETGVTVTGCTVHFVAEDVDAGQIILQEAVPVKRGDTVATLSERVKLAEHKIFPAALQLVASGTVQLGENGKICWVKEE

[5] = Homo sapiens, CCRF-CEM, read-out: IC50 [(-)T, (-)H] CCRF-CEM

## CS[C@H](CCCc1c(N)nc(N)[nH]c1=O)c1ccc(C(=O)N[C@@H](CCC(=O)O)C(=O)O)cc1 [Compound 10R-3, (S)-2-(4-((R)-4-(2,4-Diamino-6-oxo-1,6-dihydropyrimidin-5-yl)-1-(methylthio)butyl)benzamido)pentanedioic Acid]
[1]; [5]
  IC50: 90 nM
[1]
  Times less potent than 2 in the CCRF-CEM assay: 3-5 times

## Nc1nc(N)c(CCCC2(c3ccc(C(=O)N[C@@H](CCC(=O)O)C(=O)O)cc3)SCCCS2)c(=O)[nH]1 [Compound 9, (S)-2-(4-(2-(3-(2,4-Diamino-6-oxo-1,6-dihydropyrimidin-5-yl)propyl)-1,3-dithian-2-yl)benzamido)pentanedioic Acid]
[1]
  Activity in the CCRF-CEM cell-based assay (in words): no activity

## CO[C@@H](CCCc1c(N)nc(N)[nH]c1=O)c1ccc(C(=O)N[C@@H](CCC(=O)O)C(=O)O)cc1 [Compound 10S-8, (S)-2-(4-((S)-4-(2,4-Diamino-6-oxo-1,6-dihydropyrimidin-5-yl)-1-methoxybutyl)benzamido)pentanedioic Acid]
[1]; [5]
  IC50: 800 nM

## CSC(CCCc1c(N)nc(N)[nH]c1=O)c1ccc(C(=O)N[C@@H](CCC(=O)O)C(=O)O)cc1 (some centres unmarked) [Compound 3, 10-methylthio-DDACTHF]
[2]
  Loss of activity against the cell line that lacks FPGS: ca. 100 fold
[3]
  IC50: 100 nM

## Nc1nc(N)c(CCCC(C(=O)C(F)(F)F)c2ccc(C(=O)N[C@@H](CCC(=O)O)C(=O)O)cc2)c(=O)[nH]1 (some centres unmarked) [Compound 2, 10-CF3CO-DDACTHF, reference compound]
[1]; [5]
  IC50: 60 nM

## 10-hydroxy-DDACTHF [Compound 10R-7]
[1]; read-out: CCRF-CEM IC50, (+) T, (-) H, Table 2, thymidine added, no hypoxanthine
  IC50: 5700 nM
[1]; read-out: CCRF-CEM IC50, (-) T, (+) H, Table 2, hypoxanthine added, no thymidine
  IC50: > 10000 nM

## Nc1nc(N)c(CCC[C@H](O)c2ccc(C(=O)N[C@@H](CCC(=O)O)C(=O)O)cc2)c(=O)[nH]1 [Compound 10S-7, (S)-2-(4-((S)-4-(2,4-Diamino-6-oxo-1,6-dihydropyrimidin-5-yl)-1-hydroxybutyl)benzamido)pentanedioic Acid]
[4]
  Ki: 1210 nM

## CS[C@@H](CCCc1c(N)nc(N)[nH]c1=O)c1ccc(C(=O)N[C@@H](CCC(=O)O)C(=O)O)cc1 [Compound 10S-3, 10-methylthio-DDACTHF]
[1]
  Times less potent than 2 in the CCRF-CEM assay: 3-5 times
